Measured values reported in PMC9562342, “Structural and functional analysis of EntV reveals a 12 amino acid fragment protective against fungal infections” (Nature Communications, 2022).
Where “and” joins values, the source holds several entries; their conditions need not be identical. Equal entries are not always repeated. Entries after “also recorded” stand apart in the source; their conditions may differ. Where two headings read alike, the source gives them in different places. No end group written: not given here.

Experiments:
[1] = Solubility of peptides (biophysical characteristics); type: physicochemical
Excerpt: Supplement 41467_2022_33613_MOESM1_ESM.docx, table 2: Supplementary Table 2. Biophysical characteristics of peptides. | column: Solubility

C. albicans AzS = assay: C. elegans killing assay, C. albicans paired clinical isolate before fluconazole resistance (Az^S); type: in vivo, Candida albicans
C. albicans [2] = assay: Mouse OPC model, fungal burden in tongue by qPCR; type: in vivo
C. albicans [3] = assay: C. elegans killing assay, C. albicans infection; conditions: 1 nM peptide; for Median survival: C. albicans infected C. elegans
Description: C. elegans glp-4(bn2); sek-1(km-4)[48] nematodes were propagated and maintained on E. coli strain OP50[50] that was seeded onto nematode growth medium (NGM) agar using standard techniques (Hope, 1999). To synchronize the animals, L1 stage worms on non-starved plates were washed off, filtered through a 10 μm filter (pluriSelect, pluriStrainer 10 μm), harvested by centrifugation at 750 xg for 30 seconds, transferred to OP50 seeded plates, and grown to the L4 stage. To prepare the infection plates, Fungal strains were grown in YPD broth for 24 h at 37 °C with agitation. 500 μl of the culture was plated onto BHI solid medium containing gentamycin (10 μg/ml) and grown for 24 h at 37 °C. The synchronized, L4 C. elegans were washed off the OP50 plates in 2 ml sterile M9 buffer and washed once, centrifuging at 750 xg for 30 seconds to collect animals. Animals were infected by placing them on the fungal lawn for 4 h at 25 °C. Following this exposure, they were washed off the plate and washed four times with 2 ml of sterile M9. The nematodes were then pipetted (~30 per well with two wells per condition for a total of ~60 worms assayed) into six-well plates with 2 ml of liquid medium (20% BHI broth and 80% M9) containing the indicated concentrations of test compounds. Plates were incubated at 25 °C, and worm death was scored daily. Kaplan–Meier survival curves were generated and analyzed as described in the quantification and statistical analysis section.

C. albicans [4] = assay: Rat venous catheter model; type: in vivo; conditions: rat jugular vein catheter, 20 nM, 24 h, n of three
Description: To quantitate fungal burden after 24 h, the catheter was removed, and 1 cm of the tip placed in a one milliliter of sterile 0.9% NaCl followed by vortexing. A 1:10 serial dilution of this wash fluid was plated on SDA and colonies counted after 24 h of growth at 35 °C. […] Serial ethanol washes and critical point drying were used to dry the segments before they were mounted, and palladium-gold coated.

C. albicans AzR = type: in vivo, Candida albicans; conditions: C. albicans AzR infected C. elegans, peptides 1 nM, fluconazole 4 ug/ml, Fig 4D
[5] = Peptide serum stability assay; type: in vitro ADME, human
Description: One mL of RPMI supplemented with 10% (v/v) of human serum (type AB) were aliquoted and temperature-equilibrated at 37 °C for 15 min before adding a concentrated stock peptide solution resulting in a final peptide concentration of 100 µM. For each time point, 100 µL of the reaction solution was removed and added to 200 µL 96% ethanol for precipitation of serum proteins. The sample was cooled (4 °C) for 15 min and then spun at 18,000 g for 2 min to pellet the precipitated serum proteins. The reaction supernatant was analyzed using HPLC with absorbance detected at 280 nm. The peptide peak was detected first without serum treatment to assess the area under the curve for the peptide of interest. At each time point the area under the curve was calculated by HPLC and then divided by the untreated peptide area under the curve to determine the percent remaining.

[6] = tested on: C. neoformans strain 40-71; assay: C. elegans killing assay, C. neoformans infection; type: in vivo, Cryptococcus neoformans; conditions: 1 nM peptide
C. albicans [7] = assay: Mouse OPC model, epithelial (hyphal) invasion by histology; type: in vivo
C. albicans [8] = assay: C. albicans CFUs before and after two-hour pre-incubation with peptide; conditions: 100 nM, two-hour incubation in PBS
Description: To increase the chances of observing an effect, we pre-incubated C. albicans with 100 nM of EntV or the 12mer for two hours prior to intravenous (IV) injection of 1 ×10^5 CFU.
The disseminated candidiasis model[59],[60] was performed by growing C. albicans SC5314 overnight in YPD at 30 °C, then diluting 1/100 and growing in a second overnight. The late-log phase culture was collected by centrifugation at 16,000 xg for 30 s, washed in PBS, and diluted to 5 × 10^6 cells/ml in PBS containing vehicle (0.01% DMSO) or 100 nM EntV or the 12mer peptide and incubated for 2 h at room temperature. Female ICR mice 6 wks, 18–20 g, 10/experimental group were inoculated via the lateral tail vein with 0.1 ml. Animals were monitored at least twice daily for 21 days for signs of moribundity.

RBCs = assay: Hemolysis assay; type: cell-based, human; conditions: for fractional hemolysis (Toxicity): Extended Fig 6A
Description: De-identified and pooled RBCs were purchased from Rockland Immunochemicals, Inc. RBCs were prepared at 6 × 10^7 cells/mL in PBS. To 25 μL of peptide diluted appropriately to result in a final concentration of 1 nM and 1 µM, 125 μL of RBC suspension was added. The plates were gently rocked for 1 h at room temperature. The cells were then removed from suspension by centrifugation at 1000 xg for 5 min. From the experimental plate, 100 μL of the supernatant was carefully withdrawn from each well and added to a new 96-well plate. The absorbance of the solutions in each well was measured at 410 nm and each well was compared to a no-treatment control and a 100% lysis control (1% SDS).

C. albicans [9] = assay: Intravenous infection model (disseminated candidiasis); type: in vivo, mouse; conditions: C. albicans pre-incubated with 100 nM peptide for two hours, IV injection, day 22
C. albicans [10] = assay: C. albicans adhesion assay (polystyrene plates, crystal violet); type: cell-based, Candida albicans; conditions: for Adjusted avg / Avg Percent: Fig 3B, 10 nM, mean of 6 technical replicates; for Adjusted avg: background subtracted; for Avg Percent: relative adherence vs DMSO
Description: Similar to the methodology in[51], C. albicans strains were grown in YPD broth for 18 h at 30 °C with agitation and then subcultured for 4 h in the same conditions. […] The cell suspension was incubated for 1 h at 30 °C with agitation. Then 100 µl of the cell suspension was added to wells of a 96 well tissue culture treated polystyrene plate (Falcon) in addition to 100 µl of artificial saliva media[14],[52] containing the indicated concentrations of test compounds. The plate was then incubated at 37 °C for 90 min.
The adhered cell layer was then stained for 20 min with 40 µl of 0.08% crystal violet solution (diluted, Sigma). The crystal violet stain was removed, and the wells were then washed three times with sterile water. Adhered cells were then destained with 200 µl of 200 proof ethanol for 20 min, and 100 µl of the ethanol solution was transferred to a new well for analysis. The optical density at 595 nm (OD595) was measured using a Synergy H1 plate reader (BioTek) with Gen5 version 3.08 software (BioTek).

[11] = 10 nM and 1 nM in drinking water

## VAGQLALWAVQC [12aa]
[1]; Supplementary Table 2, printed as '10 µM +'
  Solubility: 10 µM +
C. albicans AzS; C. albicans AzS infected C. elegans, peptides 1 nM, fluconazole 4 ug/ml, Fig 4C, trial 1
  Median survival: 12 days
C. albicans AzS; C. albicans AzS infected C. elegans, peptides 1 nM, fluconazole 4 ug/ml, Fig 4C, trial 2
  Median survival: 10.5 days
C. albicans [2]; [11]
  Fungal burden on the tongue (in words): only a slight reduction in fungal burden on the tongue
C. albicans [2]; 50 nM in drinking water, day 5
  Fungal burden in the tongue (in words): loss of efficacy in terms of fungal burden
C. albicans [2]; 100 nM in drinking water starting at day three, sacrificed on day five
  Fungal burden in the tongue, established infection (in words): significantly less fungal burden compared to both groups of untreated animals
C. albicans [2]; corticosteroid-suppressed mice, 100 nM in drinking water from inoculation, day 5, listed as 12mer
  Fungal burden in the tongue, C. albicans DNA by qPCR (in words): equally effective; also recorded: even more effective at reducing fungal burden than 4 µg/mL fluconazole
C. albicans [3]
  Protection of C. elegans against C. albicans infection (in words): as effective in protecting against C. albicans infection in the worm model and inhibiting surface adhesion as full-length EntV
C. albicans [3]; Fig 3A, trial 1
  Median survival: 10.5 days
C. albicans [3]; Fig 3A, trial 2
  Median survival: 10 days
C. albicans [3]; Fig 3A, trial 3
  Median survival: 9.5 days
C. albicans [3]; Fig 3E, trial 1
  Median survival: 11 days
C. albicans [3]; Fig 3E, trial 2
  Median survival: 10 days
C. albicans [3]; Fig 3E, trial 3
  Median survival: 10 days
C. albicans [4]
  Reduction of catheter fungal burden: 1.5 logs
C. albicans AzR; trial 1
  Median survival: 10 days
C. albicans AzR; trial 2
  Median survival: 11 days
[5]; 10% human serum, 0 Hrs, fraction relative to 0 Hrs, mean (SD) of n = 3
  stability in the presence of 10% human serum: 1.0 (0.0)
[5]; 10% human serum, 2 Hrs, fraction relative to 0 Hrs, mean (SD) of n = 3, read-out: stability in the presence of 10% human serum
  remaining at 2 h: 44.3%
[5]; 10% human serum, 4 Hrs, fraction relative to 0 Hrs, mean (SD) of n = 3, read-out: stability in the presence of 10% human serum
  remaining at 4 h: 39.3%
[5]; 10% human serum, 24 Hrs, fraction relative to 0 Hrs, mean (SD) of n = 3, read-out: stability in the presence of 10% human serum
  remaining at 24 h: 12.4%
[5]; RPMI with 10% (v/v) human serum (type AB), 37 °C, 100 µM peptide, 24-hour incubation, HPLC 280 nm, mean of n of 3
  Peptide detectable (percent remaining) in serum: about 10%
[5]; RPMI with 10% (v/v) human serum (type AB), 37 °C, 100 µM peptide, HPLC 280 nm, n of 3
  Stability in serum (in words): not particularly stable in serum
[6]
  Protection of C. elegans infected with C. neoformans (in words): protected C. neoformans infected worms from killing
C. albicans [7]; [11]
  Invasion of the tongue epithelium (in words): the reduction in invasion remained dramatic
C. albicans [7]; 50 nM in drinking water, day 5
  Hyphal invasion of the tongue (in words): significant lowering of hyphal invasion
C. albicans [7]; 100 nM and 500 nM in drinking water versus 4 µg/mL fluconazole, day 5
  Hyphal invasion relative to fluconazole (in words): slightly less prevalent
C. albicans [7]; mouse, in vivo, listed as 12mer
  Epithelial / hyphal invasion of the tongue (in words): at least as effective as the full length EntV; also recorded: most reduced
C. albicans [8]
  C. albicans CFUs before versus after incubation with peptide (in words): no significant difference
RBCs; 1 nM and 1 µM peptide, 6 x 10^7 RBC cells/mL in PBS, 1 h room temperature, absorbance 410 nm, n of 6, listed as 12mer
  Lysis of red blood cells (in words): no lysis of red blood cells; also recorded: no toxicity
RBCs; 1nM, replicate 1
  fractional hemolysis (Toxicity): 0.01086
RBCs; 1nM, replicate 2
  fractional hemolysis (Toxicity): 0.03086
RBCs; 1nM, replicate 3
  fractional hemolysis (Toxicity): 0.01386
RBCs; 1nM, replicate 4
  fractional hemolysis (Toxicity): 0.05786
RBCs; 1uM, replicate 1
  fractional hemolysis (Toxicity): 0.04886
RBCs; 1uM, replicate 2
  fractional hemolysis (Toxicity): 0.05786
RBCs; 1uM, replicate 3
  fractional hemolysis (Toxicity): 0.03286
RBCs; 1uM, replicate 4
  fractional hemolysis (Toxicity): 0.08286
C. albicans [9]
  Survival of mice at end of experiment (in words): about half the animals were still alive
C. albicans [10]; 1 h with peptide in PBS, then artificial saliva media 90 min, crystal violet
  Inhibition of C. albicans adhesion to polystyrene (in words): as effective in protecting against C. albicans infection in the worm model and inhibiting surface adhesion as full-length EntV
C. albicans [10]; biological replicate 1
  Adjusted avg: 0.262
  Avg Percent: 40.07%
C. albicans [10]; biological replicate 2
  Adjusted avg: 0.408
  Avg Percent: 48.28%
C. albicans [10]; biological replicate 3
  Adjusted avg: 0.161
  Avg Percent: 13.25%
C. albicans [10]; biological replicate 4
  Adjusted avg: 0.232
  Avg Percent: 27.81%

## OC(Cn1cncn1)(Cn1cncn1)c1ccc(F)cc1F [Flu, fluconazole, reference compound]
C. albicans AzS; in vivo
  Median survival: 11 days and 10 days
C. albicans AzR; trial 1
  Median survival: 8 days
C. albicans AzR; trial 2
  Median survival: 6 days

## TNVGALWICGLAVIQAAQLS [α7-random]
[1]
  Solubility: 10 µM +
C. albicans [3]; Fig 2C, trial 1
  Median survival: 7 days
C. albicans [3]; Fig 2C, trial 2
  Median survival: 7 days

## TNAAAAQQGGIICLLVVWLS [α7-disrupted]
[1]
  Solubility: 10 µM +
C. albicans [3]; Fig 2C, trial 1
  Median survival: 6 days
C. albicans [3]; Fig 2C, trial 2
  Median survival: 6 days
